A short description of data set [1]: Plasma concentrations and PK parameters of the compound of formula IV in mice after intravenous administration of di-NMG salt prodrugs. Type of data set: in vivo, mouse. Also on record: AUC: unit not given here. Conditions: for Concentrations of the compound of formula IV in pooled mouse plasma, Pool 1 / Concentrations of the compound of formula IV in pooled mouse plasma, Pool 2: 2 mice/pool; for AUC: Table 3 summary: area under the curve from time zero to 24 hrs of the compound of formula IV in mouse plasma; for AUC / Bioavallability: intravenous, 20 mg/kg formula IV dose equivalent of the di-NMG salt in sterile water; for Bioavallability: of the compound of formula IV in mouse plasma.

Data set [2] can be described thus: Antifungal activity in in vivo tests in mice. Conditions: compared with itraconazole, fluconazole and azoles of USP 5,039,676 and WO 93/09114, result in words.
For a further data set, the system named is Candida species (n=41). Put plainly: In vitro antifungal activity (MIC), NCCLS standard M27A. Conditions: for MIC Range: Candida species (n=41); for MIC: Candida, read-out: G mean MICs.
Data set [3] concerns Cryptococcus neoformans (n=9). Described as above. Conditions: for MIC Range: Cryptococcus neoformans (n=9); for MIC: Cryptococcus neoformans, read-out: G mean MICs.
For data set [4], the system named is Aspergillus species (n=30). Kind of data set: In vitro antifungal activity (MIC), Espinel-Ingroff's methodology. Conditions: for MIC Range: Aspergillus species (n=30); for MIC: Aspergillus, read-out: G mean MICs.
Data set [5] in a line: Pharmacokinetic (metabolism) studies in human tissues and serum. To be noted: result in words. Type of data set: in vitro ADME.
Another data set deals with Aspergillus fumigatus. Put plainly: Pulmonary Aspergillus fumigatus infection model in mice (Loebenberg et al.).
[6] abbreviates: 0.017 hr (1 min) after intravenous administration of 20 mg/kg compound of formula IV dose equivalent of the di-NMG salt in sterile water.
Setting [7] is: 0.017 hr (1 min) after intravenous administration of 20 mg/kg compound of formula IV dose equivalent of the di-NMG salt in sterile water, mean of 2 pools.
The mark [8] stands for this setting: 0.05 hr (3 min) after intravenous administration of 20 mg/kg compound of formula IV dose equivalent of the di-NMG salt in sterile water.
Setting [9] is: 0.05 hr (3 min) after intravenous administration of 20 mg/kg compound of formula IV dose equivalent of the di-NMG salt in sterile water, mean of 2 pools.
Where [10] appears, read: 0.083 hr (5 min) after intravenous administration of 20 mg/kg compound of formula IV dose equivalent of the di-NMG salt in sterile water.
The mark [11] stands for this setting: 0.083 hr (5 min) after intravenous administration of 20 mg/kg compound of formula IV dose equivalent of the di-NMG salt in sterile water, mean of 2 pools.
[12] abbreviates: 0.25 hr (15 min) after intravenous administration of 20 mg/kg compound of formula IV dose equivalent of the di-NMG salt in sterile water.
Setting [13] is: 0.25 hr (15 min) after intravenous administration of 20 mg/kg compound of formula IV dose equivalent of the di-NMG salt in sterile water, mean of 2 pools.
[14] abbreviates: 0.5 hr (30 min) after intravenous administration of 20 mg/kg compound of formula IV dose equivalent of the di-NMG salt in sterile water.
[15] abbreviates: 0.5 hr (30 min) after intravenous administration of 20 mg/kg compound of formula IV dose equivalent of the di-NMG salt in sterile water, mean of pools.
[16] abbreviates: 1 hr. after intravenous administration of 20 mg/kg compound of formula IV dose equivalent of the di-NMG salt in sterile water.
Setting [17] is: 1 hr. after intravenous administration of 20 mg/kg compound of formula IV dose equivalent of the di-NMG salt in sterile water, mean of 2 pools.
The mark [18] stands for this setting: 3 hr. after intravenous administration of 20 mg/kg compound of formula IV dose equivalent of the di-NMG salt in sterile water.
[19] abbreviates: 3 hr. after intravenous administration of 20 mg/kg compound of formula IV dose equivalent of the di-NMG salt in sterile water, mean of 2 pools.
[20] abbreviates: 6 hr. after intravenous administration of 20 mg/kg compound of formula IV dose equivalent of the di-NMG salt in sterile water.
Where [21] appears, read: 6 hr. after intravenous administration of 20 mg/kg compound of formula IV dose equivalent of the di-NMG salt in sterile water, mean of 2 pools.
The mark [22] stands for this setting: 24 hr. after intravenous administration of 20 mg/kg compound of formula IV dose equivalent of the di-NMG salt in sterile water.
Where [23] appears, read: 24 hr. after intravenous administration of 20 mg/kg compound of formula IV dose equivalent of the di-NMG salt in sterile water, mean of 2 pools.

The text below walks through data of patent publication EP1027349B1, “TETRAHYDROFURAN PHOSPHATE- AND HYDROXY ESTERS, AS PRODRUGS FOR THE CORRESPONDING ANTIFUNGAL AGENT” (SCHERING CORPORATION, priority 1997, dated 1999).

Some results are limits rather than exact numbers.

Take `CC[C@@H]([C@H](C)OC(=O)CCCOP(=O)(O)O)n1ncn(-c2ccc(N3CCN(c4ccc(OC[C@@H]5CO[C@@](Cn6cncn6)(c6ccc(F)cc6F)C5)cc4)CC3)cc2)c1=O` [Formula II.2NMG]: the “Concentrations of the compound of formula IV in pooled mouse plasma, Pool 1” value (“Concentrations of the compound … Pool 1” below) is 171 ng/mL in data set [1] (setting [6]); 378 ng/mL in data set [1] (setting [8]); 798 ng/mL in data set [1] (setting [10]); 1570 ng/mL in data set [1] (setting [12]); 3020 ng/mL in data set [1] (setting [14]); 4460 ng/mL in data set [1] (setting [16]). For the same molecule, the “Concentrations of the compound … Pool 1” value in data set [1] (setting [18]) was found to be 5160 ng/mL; in data set [1] (setting [20]) it was 5960 ng/mL; in data set [1] (setting [22]) it was 915 ng/mL. Moreover, the “Concentrations of the compound of formula IV in pooled mouse plasma, Pool 2” value (from here on “Concentrations of the compound … Pool 2”) in data set [1] (setting [6]) was 164 ng/mL; in data set [1] (setting [8]), 297 ng/mL; in data set [1] (setting [10]) it was 817 ng/mL; in data set [1] (setting [12]), 2720 ng/mL; in data set [1] (setting [14]) it was 2340 ng/mL; in data set [1] (setting [16]), 3950 ng/mL. The entries for the “Concentrations of the compound … Pool 2” value in data set [1] (setting [18]), in data set [1] (setting [20]) and in data set [1] (setting [22]) were 5630 ng/mL, 3590 ng/mL and 992 ng/mL, respectively. The “Concentrations of the compound of formula IV in pooled mouse plasma, Mean” value (shortened to “Concentrations of the compound … Mean”) stood at 168 ng/mL in data set [1] (setting [7]); 338 ng/mL in data set [1] (setting [9]); 808 ng/mL in data set [1] (setting [11]); 2150 ng/mL in data set [1] (setting [13]); 2680 ng/mL in data set [1] (setting [15]); 4210 ng/mL in data set [1] (setting [17]). In addition, the “Concentrations of the compound … Mean” value in data set [1] (setting [19]) was found to be 5400 ng/mL; in data set [1] (setting [21]) it was 4780 ng/mL; in data set [1] (setting [23]) it was 954 ng/mL. Also, the AUC in data set [1] is 79.1. The Bioavallability in data set [1] is 65%.
In the case of `CC[C@@H]([C@H](C)OC(=O)CCCO)n1ncn(-c2ccc(N3CCN(c4ccc(OC[C@@H]5CO[C@@](Cn6cncn6)(c6ccc(F)cc6F)C5)cc4)CC3)cc2)c1=O` [Formula III, 2(S)-[4-{4-{4-{4-[[(R-Cis) -2-(2,4-difluorophenyl)-tetrahydro-2-(1H-1,2,4-triazol-1-ylmethyl)-4-furanyl]methoxy]phenyl]-1-piperazinyl]phenyl]-4,5-dihydro-5-oxo-1H-1,2,4-triazol-1-yl]-1-(S)-methylbutyl-4-hydroxy-butanoate], in data set [2], the “antifungal activity in in vivo tests” value is on record as “unexpectedly better than that of existing antifungal agents”. Further, the “MIC Range” value was at most 0.0156 to 8 µg/mL in the data set on Candida species (n=41), 0.0156 to 0.5 µg/mL in data set [3] and 0.0313 to 2 µg/mL in data set [4]. The MIC in the data set with Candida species (n=41) is 0.3 µg/mL; in data set [3] it was 0.09 µg/mL; in data set [4] it was 0.2 µg/mL.
`CC[C@@H]([C@H](C)OC(=O)CCCOP(=O)(O)O)n1ncn(-c2ccc(N3CCN(c4ccc(OC[C@@H]5CO[C@@](Cn6cncn6)(c6ccc(F)cc6F)C5)cc4)CC3)cc2)c1=O` [Formula II]: in data set [5], the metabolism entry is listed as “metabolized to the compound of formula IV via the metabolite represented by formula III”. In addition, the figures for the MIC (with Candida species (n=41); in data set [3]; in data set [4]) were 7.5 µg/mL, 1.9 µg/mL and 5.9 µg/mL, respectively. The “MIC Range” value in data set [3] was 0.125 to 32 µg/mL. Also, the survival with Aspergillus fumigatus (doses of 10 mg/kg, mice with a pulmonary Aspergillus fumigatus infection) was 70%.
Take `CC[C@@H]([C@H](C)O)n1ncn(-c2ccc(N3CCN(c4ccc(OC[C@@H]5CO[C@@](Cn6cncn6)(c6ccc(F)cc6F)C5)cc4)CC3)cc2)c1=O` [Formula IV, reference compound]: in data set [2], the “antifungal activity in in vivo tests” value is listed as “unexpectedly better than that of existing antifungal agents”. The entries for the “MIC Range” value (against Candida species (n=41); in data set [3]; in data set [4]) were at most 0.0156 to 8 µg/mL, at most 0.0150 to 0.5 µg/mL and at most 0.0156 to 1 µg/mL, respectively. The MIC came out at 0.2 µg/mL in the data set with Candida species (n=41), 0.04 µg/mL in data set [3] and 0.1 µg/mL in data set [4].
In the case of `CC[C@@H]([C@H](C)OC(=O)CCCCOP(=O)(O)O)n1ncn(-c2ccc(N3CCN(c4ccc(OC[C@@H]5CO[C@@](Cn6cncn6)(c6ccc(F)cc6F)C5)cc4)CC3)cc2)c1=O` [Formula V.2NMG, reference compound], the “Concentrations of the compound … Pool 1” value in data set [1] (setting [6]) was 0 ng/mL; in data set [1] (setting [8]), 738 ng/mL; in data set [1] (setting [10]), 1040 ng/mL; in data set [1] (setting [12]), 1220 ng/mL; in data set [1] (setting [14]), 1990 ng/mL; in data set [1] (setting [16]), 2730 ng/mL. In addition, the “Concentrations of the compound … Pool 1” value stood at 923 ng/mL in data set [1] (setting [18]), 2590 ng/mL in data set [1] (setting [20]) and 447 ng/mL in data set [1] (setting [22]). Further, the “Concentrations of the compound … Pool 2” value in data set [1] (setting [6]) is 0 ng/mL; in data set [1] (setting [8]), 663 ng/mL; in data set [1] (setting [10]), 1430 ng/mL; in data set [1] (setting [12]), 407 ng/mL; in data set [1] (setting [16]), 2630 ng/mL; in data set [1] (setting [18]), 2510 ng/mL. Further, the “Concentrations of the compound … Pool 2” value turned out to be 1900 ng/mL in data set [1] (setting [20]) and 515 ng/mL in data set [1] (setting [22]). Further, the “Concentrations of the compound … Mean” value amounted to 0 ng/mL in data set [1] (setting [7]); 723 ng/mL in data set [1] (setting [9]); 1240 ng/mL in data set [1] (setting [11]); 814 ng/mL in data set [1] (setting [13]); 1990 ng/mL in data set [1] (setting [15]); 2680 ng/mL in data set [1] (setting [17]). In addition, the “Concentrations of the compound … Mean” value in data set [1] (setting [19]) was 1720 ng/mL; in data set [1] (setting [21]) it was 2250 ng/mL; in data set [1] (setting [23]) it was 481 ng/mL. Besides, in data set [1], the AUC is given as 36.7. In data set [1], the Bioavallability is 30%.
With `OC(Cn1cncn1)(Cn1cncn1)c1ccc(F)cc1F` [fluconazole, reference compound], the “activity in Aspergillus pulmonary infection model” value in the data set on Aspergillus fumigatus (mice, result in words) was “inactive”.
